Legend:
GIRK2/3 = molecular target: T1, GIRK2/3 (Homo sapiens, UniProt P48051+Q92806); assay: Whole-cell voltage-clamp, GIRK2/3-expressing HEK-293 cells; type: cell-based; conditions: cell line GIRK2-3
T1 construct: expressed in transfected cells; host or cells: HEK-293
T1 sequence (P48051 1-423): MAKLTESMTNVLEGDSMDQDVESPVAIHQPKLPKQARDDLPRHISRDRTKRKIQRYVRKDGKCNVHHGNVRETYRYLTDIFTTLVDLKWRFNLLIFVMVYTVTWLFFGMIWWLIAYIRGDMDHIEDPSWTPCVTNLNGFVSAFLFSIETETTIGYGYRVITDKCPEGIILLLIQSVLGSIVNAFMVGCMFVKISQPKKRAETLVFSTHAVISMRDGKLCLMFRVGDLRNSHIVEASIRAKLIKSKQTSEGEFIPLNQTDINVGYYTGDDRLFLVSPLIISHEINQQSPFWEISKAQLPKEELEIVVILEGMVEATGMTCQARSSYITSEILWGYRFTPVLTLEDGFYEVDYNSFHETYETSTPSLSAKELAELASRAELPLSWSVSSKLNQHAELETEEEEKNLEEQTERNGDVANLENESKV
T1 sequence (Q92806 1-393): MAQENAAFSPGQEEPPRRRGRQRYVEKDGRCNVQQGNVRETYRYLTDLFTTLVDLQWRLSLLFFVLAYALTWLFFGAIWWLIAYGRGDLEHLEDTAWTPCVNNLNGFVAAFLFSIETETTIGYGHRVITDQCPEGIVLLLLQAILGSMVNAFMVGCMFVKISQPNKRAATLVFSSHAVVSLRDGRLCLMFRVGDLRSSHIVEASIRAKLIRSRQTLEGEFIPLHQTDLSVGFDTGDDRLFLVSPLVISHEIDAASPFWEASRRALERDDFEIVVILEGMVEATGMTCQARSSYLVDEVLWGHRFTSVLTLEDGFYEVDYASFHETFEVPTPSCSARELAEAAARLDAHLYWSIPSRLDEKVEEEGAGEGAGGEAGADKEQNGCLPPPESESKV
Excerpt: Cell Line Construction and Cell Culture. HEK-293 cells co-expressing human GIRK1/2 and rat mGlu8 were generated as previously described (Niswender et al., 2008). A HEK-293 cell line (ATCC, Manassas, Va.) expressing human GIRK1 and human GIRK2 was constructed by transfecting HEK-293 cells with GIRK1 and GIRK2 (Origene, Rockville, Md.) cloned into the pBudCE4.1 vector (Life Technologies, Carlsbad, Calif.) using FuGene 6 (Promega, Madison, Wis.) transfection reagent. […]
A single-cell suspension of HEK-293 cells stably transfected with the appropriate ion channels were plated into TC-treated 35 mm polystyrene dishes at ˜15% confluence and incubated overnight in a 5% CO2 cell culture incubator at 37° C. […] Whole cell currents were recorded in 20K extracellular solution at −70 mV using a Pico 1 amplifier (Tecella, Foothill Ranch, Calif.) controlled by WINWCP 4.X (University of Strathclyde, Glasgow, Scotland, UK). […] One day after transfection, cells were plate into 35 mm polystyrene dishes, incubated and recorded as described above. […]
Voltage-clamp data were analyzed by converting current amplitudes to current density by dividing by each cell's membrane capacitance estimated from capacitance compensation. […]

Rotarod test = type: in vivo, mouse; conditions: mice, 60 mg/kg i.p.
Method: For rotarod tests, a rotarod module was inserted into a mouse home cage and was operated by the SmartCage™ (AfaSci, Inc., Redwood City, Calif.) system28. A mouse was placed on the rod and the rod began to rotate at a fixed speed (15 rpm). Latencies for the mice to fall off the rod were recorded. […] Two groups of mice (n=8 mice/group) were trained on the rotarod over 4 consecutive days. On training days, each mouse was allowed to perform on the rotarod a total of 4 times. For each training day, each mouse's lowest rotarod latency was excluded. The remaining 3 rotarod latencies were averaged and served as the mouse's rotarod performance for that training day. […] Approximately 1 hour post-drug/vehicle injection, each mouse's rotarod performance was assessed a total of 4 times with the mouse's worst performance being excluded. The remaining 3 rotarod latencies were then averaged for each mouse and these values were normalized to the mouse's previous performance on the final training day to account for variation in individual animal's competency on the rotarod.

Adenosine A3 = molecular target: T2, Adenosine A3 (Homo sapiens, UniProt P0DMS8); assay: Radioligand displacement (Ricerca); type: binding
T2 construct: Ricerca (contract assay)

Sigma σl = molecular target: T3, Sigma σl (Homo sapiens, UniProt Q99720); assay: Radioligand displacement (Ricerca); type: binding
T3 construct: Ricerca (contract panel)
T3 sequence (Q99720 whole entry): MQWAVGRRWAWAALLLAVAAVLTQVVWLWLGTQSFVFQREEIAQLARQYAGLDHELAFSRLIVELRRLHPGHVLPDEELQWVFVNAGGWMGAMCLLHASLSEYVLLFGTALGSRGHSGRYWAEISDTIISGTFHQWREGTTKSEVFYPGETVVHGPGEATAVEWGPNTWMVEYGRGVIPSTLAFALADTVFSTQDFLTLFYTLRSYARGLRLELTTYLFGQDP

T2 sequence (P0DMS8 whole entry): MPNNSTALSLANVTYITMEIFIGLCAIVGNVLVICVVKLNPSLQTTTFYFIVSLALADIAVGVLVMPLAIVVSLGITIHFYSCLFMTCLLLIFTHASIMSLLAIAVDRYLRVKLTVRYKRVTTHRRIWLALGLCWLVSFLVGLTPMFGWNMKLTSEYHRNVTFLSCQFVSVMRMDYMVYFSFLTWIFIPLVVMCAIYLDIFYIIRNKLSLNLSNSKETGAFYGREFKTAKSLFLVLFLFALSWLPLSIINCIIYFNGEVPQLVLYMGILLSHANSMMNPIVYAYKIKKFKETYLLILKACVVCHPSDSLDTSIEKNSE

Structure (SMILES): Cc1cc(NC(=O)Nc2ccc(F)c(F)c2)n(-c2ccccc2)n1 [VU0456810, 1-(3,4-difluorophenyl)-3-(3-methyl-1-phenyl-1H-pyrazol-5-yl)urea]
- EC50 Voltage Clamp (GIRK2/3): Inactive
- rotarod performance compared to vehicle (Rotarod test): small and insignificant decrease
- decrease in performance on the rotarod vs vehicle (Rotarod test; insignificant (p=0.7)): 14%
- inhibition at 10 µM (Adenosine A3): 8%
- inhibition at 10 µM (Sigma σl): < 50%
- % Inhibition (Sigma σl; 10 μM): 49%
